Tested on: vitrectomy-induced PSC formation
Assay: Post-vitrectomy posterior subcapsular cataract (PSC) formation in Dutch Belted rabbits, surgical irrigating solution
Format: in vivo, Dutch Belted rabbit
Conditions: for Incidence of Lens Line Suture Distortion: irrigating solution w/1.0 μM Compound X, rabbit, affected lenses/total lenses
Method: The following example illustrates the reduction in frequency of post-vitrectomy cataract formation, employing a surgical irrigating solution containing a compound of formula (I).
Age-matched, Dutch Belted rabbits were used in this study. At 2.5 months of age, unilateral, partial vitrectomy (vitreous replaced by irrigating solution) was performed. Briefly, rabbits (1.5-2.0 kg) were prepared for surgery by subcutaneous administration of atropine to maintain heart rate and limit lung and oropharynx fluid accumulation. Animals were then anesthetized by intramuscular administration of ketamine (45 mg/kg) and xylazine (6 mg/kg). Anesthesia was maintained by re-administration of half-doses of anesthetic every 35-45 minutes as needed. For pupil dilatation, phenylephrine HCL and cyclopentolate HCL were administered topically to the surgical eye (OD). The nonsurgical eye (OS) received Duratears and was then taped shut to prevent loss of moisture. Immediately prior to surgery, proparacaine was administered topically to the OD eye and a speculum inserted. […] Two sutures were placed in a figure eight (4 and 8 o'clock position), about 4.5 mm from the limbus, to accommodate the outer port suction cutter and endoilluminator, respectively. An inner port infusion cannula was sutured through the pars plana (6 o'clock position) about 4 mm from the limbus. Two additional punctures were made with a V-lance stiletto knife (20 gauge) for the instrument entry through the outer ports. Two sutures were then placed (3 and 9 o'clock position) in the sclera, approximately 1 mm from the limbus, to facilitate manipulation of the eye and to secure the metal contact lens holder. Viscoat® (125 μL) was then applied to the cornea followed by the placement of a wide angle lens onto the cornea. The vitreous was then removed using the SERIES TEN THOUSAND® OCUTOME® posterior-segment surgical system for 10 minutes by a combination of cutting (500 cuts/minute) and suction (90 mm Hg), while continually supplying BSS® or BSS Plus® irrigating solution, or an irrigating solution containing Compound X (1.0 μM) (at room temperature), at a rate of approximately 3.5 mL/minute and an ocular fluid pressure of 35 mm Hg. Upon completion of the surgery, instruments were withdrawn, infusion pressure reduced to 22 mm Hg, sclerotomies closed, and the conjunctiva reapproximated at the limbus with sutures. A typical surgical procedure required approximately 40-50 minutes, utilizing approximately 100 mL of irrigation solution. The amount of vitreous replaced was approximately 1.5 mL. At various times following vitrectomy, lenses were excised and immediately examined by low resolution light microscopy. Photographs were taken with a digital camera for a later assessment of line suture defects.
The results of this study document the early development of PSC in the Dutch Belted rabbit following vitrectomy, as quantified by scoring for the presence of distorted suture branches and sub-branches. […] Comparison of the effect of vitrectomy with standard irrigation and the Compound X-supplemented irrigation 3 month post-surgery indicated a high incidence of an acute distortion of normally straight line sutures for animals of the standard irrigation treatment groups (Table 1) but not the Compound X treated animals. […] This abnormal condition was further aggravated at […] post-vitrectomy, as recognized by the extension of existing sub-branches and the development of additional small sub-branches. […] This condition was essentially maintained throughout twelve months post-vitrectomy.
In contrast, 86% (or 6 out of 7 lenses) of the lenses from the Compound X treatment group were unaffected by vitrectomy with an average suture defect score of +1.7 at this same time point. The lens scores of animals treated with the Compound X supplemented therapeutic irrigation solution were essentially identical to those of naive controls (scoreavg=+1.63). […]

Structure (SMILES): COc1ccc2cc([C@H](C)C(=O)OCC[C@@]3(C)CCc4c(C)c(O)c(C)c(C)c4O3)ccc2c1 [Compound X, (S)-6-methoxy-[…]-methyl-naphthaleneacetic acid, (R)-2-(3,4-dihydro-6-hydroxy-2,5,7,8-tetramethyl-2H-1-benzopyran-2-yl)ethyl ester]
- rate of lens growth (3-12 months post-surgery, compared to naive controls, 1.0 μM in irrigating solution during vitrectomy): essentially identical to that of naive controls
- Incidence of Lens Line Suture Distortion (3 month post-Vitrectomy): 0/8
- Incidence of Lens Line Suture Distortion (6 month post-Vitrectomy): 1/7
- Incidence of Lens Line Suture Distortion (12 month post-Vitrectomy): 1/7
- lenses unaffected by vitrectomy (12 months post-vitrectomy, 6 out of 7 lenses, 1.0 μM in irrigating solution): 86%
- average suture defect score (12 months post-vitrectomy, scale 0 (straight line suture) to +6 (very crooked suture pattern with many sub-branches or mature cataract), naive controls +1.63): +1.7
- lens suture appearance (distortion, sub-branches) (six months post-surgery, essentially maintained throughout twelve months post-vitrectomy, low resolution light microscopy): only slightly distorted suture branches which, on average, were devoid of sub-branches

Reference: patent publication US6433007B1, “Methods for the prevention and treatment of post-surgical complications” (Alcon Manufacturing, Ltd., priority 1998, dated 2002)
